Source: patent US7576128B2 (priority 2004, dated 2009)
Changes are numbered by the printed parent chain.

Legend:
[1] = target: T1, hAR (human androgen receptor) (Homo sapiens, UniProt P10275); assay: Competitive binding analysis on baculovirus/Sf9 generated hAR extracts with 3H-DHT tracer
T1 construct: made in house; host or cells: baculovirus/Sf9 insect cells
T1 sequence (P10275 1-920): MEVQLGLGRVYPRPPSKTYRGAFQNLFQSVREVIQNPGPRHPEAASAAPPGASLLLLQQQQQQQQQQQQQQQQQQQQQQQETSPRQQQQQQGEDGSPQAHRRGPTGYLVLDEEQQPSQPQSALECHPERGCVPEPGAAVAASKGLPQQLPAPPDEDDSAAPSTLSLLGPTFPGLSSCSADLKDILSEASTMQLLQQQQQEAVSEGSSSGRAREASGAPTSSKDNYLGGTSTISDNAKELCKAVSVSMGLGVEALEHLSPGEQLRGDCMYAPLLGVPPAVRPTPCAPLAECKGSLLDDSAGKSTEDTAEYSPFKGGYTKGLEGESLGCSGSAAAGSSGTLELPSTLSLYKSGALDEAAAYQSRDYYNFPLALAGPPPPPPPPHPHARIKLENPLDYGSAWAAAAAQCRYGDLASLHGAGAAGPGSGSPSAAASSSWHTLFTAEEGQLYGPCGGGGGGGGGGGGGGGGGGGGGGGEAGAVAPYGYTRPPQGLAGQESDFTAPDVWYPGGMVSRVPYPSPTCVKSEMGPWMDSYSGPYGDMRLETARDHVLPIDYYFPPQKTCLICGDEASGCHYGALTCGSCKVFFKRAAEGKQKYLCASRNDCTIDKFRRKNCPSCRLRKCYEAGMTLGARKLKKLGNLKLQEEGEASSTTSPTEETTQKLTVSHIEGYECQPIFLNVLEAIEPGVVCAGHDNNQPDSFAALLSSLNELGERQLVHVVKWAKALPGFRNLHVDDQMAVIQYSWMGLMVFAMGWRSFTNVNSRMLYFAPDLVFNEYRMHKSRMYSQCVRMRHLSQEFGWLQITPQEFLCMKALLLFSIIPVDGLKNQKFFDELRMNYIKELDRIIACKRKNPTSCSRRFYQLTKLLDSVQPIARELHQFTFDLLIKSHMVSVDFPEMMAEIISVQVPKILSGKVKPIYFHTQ
Description: The description below describes how the assay was carried out.
Competitive binding analysis was performed on baculovirus/Sf9 generated hAR extracts in the presence or absence of different concentrations of test agent and a fixed concentration of ^3H-dihydrotestosterone (^3H-DHT) as tracer. This binding assay method is a modification of a protocol previously described (Liao S., et. al. J. Steroid Biochem. 20:11-17 1984). Briefly, progressively decreasing concentrations of compounds are incubated in the presence of hAR extract (Chang et al. P.N.A.S. Vol. 89, pp. 5546-5950,1992), hydroxylapatite, and 1 nM ^3 H-DHT for one hour at 4° C. Subsequently, the binding reactions are washed three times to completely remove excess unbound ^3 H-DHT. hAR bound ^3H-DHT levels are determined in the presence of compounds (=i.e competitive binding) and compared to levels bound when no competitor is present (=i.e. maximum binding). Compound binding affinity to the hAR is expressed as the concentration of compound at which one half of the maximum binding is inhibited.

Male C3H/HeN mice = assay: Modified telogen conversion assay (hair growth, induction of anagen); assay type: in vivo; settings: test concentration of 3% w/v, topical
Source text: It has been discovered that male C3H/HeN mice may be used in the telogen conversion assay, when evaluating anti-androgen test compounds. Thus, the model relates to a modification of the existing telogen conversion assay. Male C3H/HeN mice approximately 7 weeks old are utilized. These animals are also uniformly in telogen, like their female counterparts. However, once shaven, the androgens inherently present in these male mice inhibit the conversion of the hair follicles to the anagen phase. An anti-androgen will block this androgenic effect and the follicles will convert to anagen, like their female counterparts.
Male C3H/HeN mice, 6 to 7 weeks old (Charles River Laboratories, Raleigh, N.C.) were used for the study. Fur was clipped from the dorsal region of the mice prior to initiation of the study. Only mice with pink skin, a visual indication of the telogen phase, were selected for inclusion in the study.
The test compound was dissolved in a vehicle consisting of propylene glycol (30%) and ethanol (70%) to achieve a concentration of either 0.2% w/v, 0.5% w/v, 1% w/v or 3% w/v. The relevant dose was applied topically to the clipped dorsal region of the mice in one test group (7-10 mice) in a volume of 20 μl/cm^2. A third group of animals received only the vehicle to serve as a control. Treatments were applied twice daily for 4 weeks.
The treatment area was observed and graded every other day for signs of hair growth. The hair growth response was quantified by recording, for each animal, the day on which signs of hair growth first appeared over the treated area. The first sign of anagen was the darkening of skin color as melanocytes in the follicles started to synthesize melanin in preparation for the production of pigmented hairs. […] The percentage of mice showing signs of hair growth in both the treatment group and the control group is graphically depicted in FIG. 1.

androgen receptor = target: T2, androgen receptor (Homo sapiens, UniProt P10275); assay: AR antagonist cell assay, MDA-MB453-MMTV clone 54-19 luciferase reporter; assay type: cell-based; settings: read-out: AR Cell IC50; MDA-MB453-MMTV clone 54-19, 100 pM DHT, 17 hr; mean of multiple tests
T2 sequence (P10275 1-920 Q868H): T1 sequence (P10275 1-920) with Q868H
Description: The compounds ability to antagonize the effects of androgen on the androgen receptor were determined in a whole cell assay as described immediately below.
This cell line is a stable transfected cell line with MDA-MB453 cell background (a human breast tumor cell line expressing androgen receptor). A MMTV minimal promoter containing ARE was first cloned in front of a firefly luciferase reporter gene. Then the cascade was cloned into transfection vector pUV120puro. Electroporation method was used for transfecting MDA-MB-453 cell. Puromycin resistant stable cell line was selected.
• 1. Cells are maintained in culture medium, splitting cells when they reach 80-90% confluence • 2. To test compounds, 10,000 cells/well are plated to opaque 96 cell culture plate in 100 ul/well plating medium, culture for overnight at 37° C. in cell culture incubator • 3. Carefully remove plating medium, then add 80 ul/well of pre-warmed assay medium, add 10 ul/well testing compound (final concentration at) 1000 nM, 200 nM, 40 nM, 8 nM, 1.6 nM, and 0.32 nM), incubate at 37° C. for 30 minutes • 4. Add 10 ul/well freshly prepared DHT (final concentration at 100 pM) to each well, incubate at 37° C. for 17 hr (overnight) • 5.
The results are reported as the mean of multiple tests as described below (the numbers of tests are indicated in the footnote). N.D. denotes that the compound was not tested.

[2] = after 7 years of treatment; cited from earlier work

Compound	IC50 [1] [nM]	rate of hair growth versus vehicle control (Male C3H/HeN mice)	IC50 (androgen receptor) [nM]	increase in spinal BMD [2] [%]
CC(C)C(O)C(C)(C)COc1ccc(C#N)c(Cl)c1 (stereo not shown) [Example 27, 2-Chloro-4-(3-Hy-droxy-2,2,4-trimethyl-pentyloxy)-benzonitrile]	63	did not exceed that of the vehicle control	0.04	
NCCCC(O)(P(=O)(O)O)P(=O)(O)O [alendronate]				≤ 11
